Target: T1, SYK (Homo sapiens, UniProt P43405)
T1 construct: 2.5 nM SYK, 400 nM Biotin-Aha-Aha-KEDPDYEWPSAKK
Experiment: SYK flash plate assay (enzyme assay)
Assay type: biochemical
Procedure: The kinase assay is performed either as 384-well Flashplate assay (for e.g. Topcount measurement) or as 384-well Image-Flashplate assay (for LEADseeker measurement).
2.5 nM SYK, 400 nM Biotin-Aha-Aha-KEDPDYEWPSAKK
and 10 μM ATP (spiked with 0.3 μCi 33P-ATP/well) are incubated in a total volume of 50 μl (60 mM Hepes, 10 mM MgCl2, 1.2 mM Dithiothreitol, 0.02% Brij35, 0.1% BSA, pH 7.5) with or without test compound for 1 hours at 30° C. The reaction is stopped with 25 μl 200 mM EDTA. After 30 Min at 30° C. the liquid is removed and each well washed thrice with 100 μl 0.9% sodium chloride solution. Non-specific reaction is determined in presence of […] Staurosporine. Radioactivity is measured with Topcount (when using Flashplates) or with LEADseeker (when using Image-Flashplates) respectively. Results (e.g. IC50-values) are calculated with program tools provided by the IT-department (e.g. Symyx Assay Explorer, Genedata Screener). In Vivo Assays CIA

| IC50 [nM] | SMILES |
| --- | --- |
| 100 to 300 | CC1(C)C(=O)Nc2cc(Nc3nc4c(N5C[C@H](O)C[C@@H]5c5ccccc5)nccn4n3)ccc21 [E6, 6-[8-(4(2R,4R)-4-hydroxy-2-phenyl-pyrrolidin-1-yl)-[1,2,4]triazolo[1,5-a]pyrazin-2-ylamino]-3,3-dimethyl-1,3-dihydro-indol-2-one] |
| < 100 | CC1(C)CC(=O)Nc2cc(Nc3nc4c(N5CCC6(CC(=O)NC6=O)C5)nccn4n3)ccc21 (stereo not shown) [E7, 7-[2-(4,4-dimethyl-2-oxo-1,2,3,4-tetrahydro-quinolin-7-ylamino)-[1,2,4]triazolo[1,5-a]pyrazin-8-yl]-2,7-diaza-spiro[4.4]nonane-1,3-dione] |
| < 100 | Cn1cc(-c2nccn3nc(Nc4ccc5c(c4)NC(=O)C54CCC4)nc23)cn1 [E8, 6′-[[8-(1-methylpyrazol-4-yl)-[1,2,4]triazolo[1,5-a]pyrazin-2-yl]amino]spiro[cyclobutane-1,3′-indoline]-2′-one] |
| < 100 | CC1(C)CCNc2cc(Nc3nc4c(N5CCC6(CCNC6)C5)nccn4n3)ccc21 (stereo not shown) [E9, [8-(2,7-diaza-spiro[4.4]non-2-yl)-[1,2,4]triazolo[1,5-a]pyrazin-2-yl]-(4,4-dimethyl-1,2,3,4-tetrahydro-quinolin-7-yl)-amine] |
| 100 to 300 | CC1(C)C(=O)Nc2cc(Nc3nc4c(N5CCC6(C5)OCCO6)nccn4n3)ccc21 [E10, 6-[8-(1,4-dioxa-7-aza-spiro[4.4]non-7-yl)-[1,2,4]triazolo[1,5-a]pyrazin-2-ylamino]-3,3-dimethyl-1,3-dihydro-indol-2-one] |
| 300 to 3000 | CC(=O)N(C)C1CCN(c2nccn3nc(Nc4ccc5c(c4)NC(=O)C5(C)C)nc23)C1 (stereo not shown) [E11, N-{1-[2-(3,3-dimethyl-2-oxo-2,3-dihydro-1H-indol-6-ylamino)-[1,2,4]triazolo[1,5-a]pyrazin-8-yl]-pyrrolidin-3-yl}-N-methyl-acetamide] |
| < 100 | CC1(C)C(=O)Nc2cc(Nc3nc4c(N5CCC6(CCNC6=O)CC5)nccn4n3)ccc21 [E13, 8-[2-(3,3-dimethyl-2-oxo-2,3-dihydro-1H-indol-6-ylamino)-[1,2,4]triazolo[1,5-a]pyrazin-8-yl]-2,8-diaza-spiro[4.5]decan-1-one] |
| 100 to 300 | CC(=O)N1CCC(N(C)c2nccn3nc(Nc4ccc5c(c4)NC(=O)C5(C)C)nc23)CC1 [E14, 6-{8-[(1-acetyl-piperidin-4-yl)-methyl-amino]-[1,2,4]triazolo[1,5-a]pyrazin-2-ylamino}-3,3-dimethyl-1,3-dihydro-indol-2-one] |
| < 100 | CC1(C)C(=O)Nc2cc(Nc3nc4c(N5CC[C@@]6(CC(=O)NC6=O)C5)nccn4n3)ccc21 [E16, (R)-7-[2-(3,3-dimethyl-2-oxo-2,3-dihydro-1H-indol-6-ylamino)-[1,2,4]triazolo[1,5-a]pyrazin-8-yl]-2,7-diaza-spiro[4.4]nonane-1,3-dione] |
| 100 to 300 | CN(c1nccn2nc(Nc3ccc4c(c3)NC(=O)C4(C)C)nc12)C1CCNCC1 [E17, 3,3-dimethyl-6-[8-(methyl-piperidin-4-yl-amino)-[1,2,4]triazolo[1,5-a]pyrazin-2-ylamino]-1,3-dihydro-indol-2-one] |
| < 100 | CC1(C)C(=O)Nc2cc(Nc3nc4c(N5CC[C@]6(CC(=O)NC6=O)C5)nccn4n3)ccc21 [E18, (S)-7-[2-(3,3-dimethyl-2-oxo-2,3-dihydro-1H-indol-6-ylamino)-[1,2,4]triazolo[1,5-a]pyrazin-8-yl]-2,7-diaza-spiro[4.4]nonane-1,3-dione] |
| 100 to 300 | CC1(C)C(=O)Nc2cc(Nc3nc4c(N5CCC6(CCNC6=O)C5)nccn4n3)ccc21 (stereo not shown) [E19, 3,3-dimethyl-6-[8-(6-oxo-2,7-diaza-spiro[4.4]non-2-yl)-[1,2,4]triazolo[1,5-a]pyrazin-2-ylamino]-1,3-dihydro-indol-2-one] |
| < 100 | CC1(C)C(=O)Nc2cc(Nc3nc4c(N5CCC6(CNC(=O)C6)C5)nccn4n3)ccc21 (stereo not shown) [E20, 3,3-dimethyl-6-[8-(8-oxo-2,7-diaza-spiro[4.4]non-2-yl)-[1,2,4]triazolo[1,5-a]pyrazin-2-ylamino]-1,3-dihydro-indol-2-one] |
| < 100 | Cn1cc(-c2nccn3nc(Nc4ccc5c(c4)NCCC5(C)C)nc23)cn1 [E21, (4,4-dimethyl-1,2,3,4-tetrahydro-quinolin-7-yl)-[8-(1-methyl-1H-pyrazol-4-yl)-[1,2,4]triazolo[1,5-a]pyrazin-2-yl]-amine] |
| 300 to 3000 | CC1(C)C(=O)Nc2cc(Nc3nc4c(N5CCC[C@@H]5C(N)=O)nccn4n3)ccc21 [E22, (R)-1-[2-(3,3-dimethyl-2-oxo-2,3-dihydro-1H-indol-6-ylamino)-[1,2,4]triazolo[1,5-a]pyrazin-8-yl]-pyrrolidine-2-carboxylic acid amide] |
| 100 to 300 | Cn1cc(-c2nccn3nc(Nc4ccc5c(c4)NS(=O)(=O)C5)nc23)cn1 [E23, (2,2-dioxo-2,3-dihydro-1H-2I6-benzo[c]isothiazol-6-yl)-[8-(1-methyl-1H-pyrazol-4-yl)-[1,2,4]triazolo[1,5-a]pyrazin-2-yl]-amine] |

| IC50 [nM] | SMILES |
| --- | --- |
| 3000 to 50000 | CC1(C)C(=O)Nc2cc(Nc3nc4c(N5C[C@H](O)C[C@H]5c5ccccc5)nccn4n3)ccc21 [E24, 6-[8-((2S,4R)-4-hydroxy-2-phenyl-pyrrolidin-1-yl)-[1,2,4]triazolo[1,5-a]pyrazin-2-ylamino]-3,3-dimethyl-1,3-dihydro-indol-2-one] |
| < 100 | Cn1cc(-c2nccn3nc(Nc4ccc5c(c4)NC(=O)NC5(C)C)nc23)cn1 [E26, 4,4-dimethyl-7-[8-(1-methyl-1H-pyrazol-4-yl)-[1,2,4]triazolo[1,5-a]pyrazin-2-ylamino]-3,4-dihydro-1H-quinazolin-2-one] |
| < 100 | CC1(C)C(=O)Nc2cc(Nc3nc4c(N5CCC6(CC5)CNC(=O)O6)nccn4n3)ccc21 [E27, 8-[2-(3,3-dimethyl-2-oxo-2,3-dihydro-1H-indol-6-ylamino)-[1,2,4]triazolo[1,5-a]pyrazin-8-yl]-1-oxa-3,8-diaza-spiro[4.5]decan-2-one] |
| < 100 | CC1(C)C(=O)Nc2cc(Nc3nc4c(N5CCC6(CC5)NC(=O)NC6=O)nccn4n3)ccc21 [E28, 8-[2-(3,3-dimethyl-2-oxo-2,3-dihydro-1H-indol-6-ylamino)-[1,2,4]triazolo[1,5-a]pyrazin-8-yl]-1,3,8-triaza-spiro[4.5]decane-2,4-dione] |
| 3000 to 50000 | CC1(C)C(=O)Nc2cc(Nc3nc4c(N5C[C@@H](O)C[C@H]5c5ccccc5)nccn4n3)ccc21 [E29, 6-[8-((2S,4S)-4-hydroxy-2-phenyl-pyrrolidin-1-yl)-[1,2,4]triazolo[1,5-a]pyrazin-2-ylamino]-3,3-dimethyl-1,3-dihydro-indol-2-one] |
| 3000 to 50000 | CC1(C)C(=O)Nc2cc(Nc3nc4c(N5CCC(CO)C5)nccn4n3)ccc21 (stereo not shown) [E30, 6-[8-(3-hydroxymethyl-pyrrolidin-1-yl)-[1,2,4]triazolo[1,5-a]pyrazin-2-ylamino]-3,3-dimethyl-1,3-dihydro-indol-2-one] |
| < 100 | COc1cccc(Nc2nc3c(-c4ccccc4C#N)nccn3n2)c1 [E31, 2-[2-(3-methoxy-phenylamino)-[1,2,4]triazolo[1,5-a]pyrazin-8-yl]-benzonitrile] |
| < 100 | CC1(C)C(=O)Nc2cc(Nc3nc4c(N5Cc6cn[nH]c6C5)nccn4n3)ccc21 [E32, 6-[8-(4,6-dihydro-1H-pyrrolo[3,4-c]pyrazol-5-yl)-[1,2,4]triazolo[1,5-a]pyrazin-2-ylamino]-3,3-dimethyl-1,3-dihydro-indol-2-one] |
| 100 to 300 | CC1(C)C(=O)Nc2cc(Nc3nc4c(N5CC6C(=O)NC(=O)C6C5)nccn4n3)ccc21 (stereo not shown) [E33, 5-[2-(3,3-dimethyl-2-oxo-2,3-dihydro-1H-indol-6-ylamino)-[1,2,4]triazolo[1,5-a]pyrazin-8-yl]-tetrahydro-pyrrolo[3,4-c]pyrrole-1,3-dione] |
| 100 to 300 | CC1(C)C(=O)Nc2cc(Nc3nc4c(N5CCC(COC=O)C5)nccn4n3)ccc21 (stereo not shown) [E34, formic acid 1-[2-(3,3-dimethyl-2-oxo-2,3-dihydro-1H-indol-6-ylamino)-[1,2,4]triazolo[1,5-a]pyrazin-8-yl]pyrrolidin-3-ylmethyl ester] |
| < 100 | CC1(C)C(=O)Nc2cc(Nc3nc4c(N5CCC6(CCC(=O)N6)CC5)nccn4n3)ccc21 [E35, 8-[2-(3,3-dimethyl-2-oxo-2,3-dihydro-1H-indol-6-ylamino)-[1,2,4]triazolo[1,5-a]pyrazin-8-yl]-1,8-diaza-spiro[4.5]decan-2-one] |
| 100 to 300 | Cn1cc(-c2nccn3nc(Nc4ccc(CS(=O)(=O)O)c(N)c4)nc23)cn1 [E36, {2-amino-4-[8-(1-methyl-1H-pyrazol-4-yl)-[1,2,4]triazolo[1,5-a]pyrazin-2-ylamino]-phenyl}-methanesulfonic acid] |
| 100 to 300 | Cc1nc(C2CCN(c3nccn4nc(Nc5ccc6c(c5)NC(=O)C6(C)C)nc34)CC2)[nH]c1C [E37, 6-{8-[4-(4,5-dimethyl-1H-imidazol-2-yl)-piperidin-1-yl]-[1,2,4]triazolo[1,5-a]pyrazin-2-ylamino}-3,3-dimethyl-1,3-dihydro-indol-2-one] |
| 100 to 300 | CNS(=O)(=O)C1CCN(c2nccn3nc(Nc4ccc5c(c4)NC(=O)C5(C)C)nc23)CC1 [E38, 1-[2-(3,3-dimethyl-2-oxo-2,3-dihydro-1H-indol-6-ylamino)-[1,2,4]triazolo[1,5-a]pyrazin-8-yl]-piperidine-4-sulfonic acid methylamide] |
| < 100 | CC1(C)C(=O)Nc2cc(Nc3nc4c(N5CCC(S(N)(=O)=O)CC5)nccn4n3)ccc21 [E39, 1-[2-(3,3-dimethyl-2-oxo-2,3-dihydro-1H-indol-6-ylamino)-[1,2,4]triazolo[1,5-a]pyrazin-8-yl]-piperidine-4-sulfonic acid amide] |

— patent publication US9120804B2, “8-substituted 2-amino-[1,2,4] triazolo [1, 5-A] pyrazines as Syk tryrosine kinase inhibitors and GCN2 serin kinase inhibitors” (Merck Patent GmbH, priority 2012, dated 2015)
